According to US9642874B2, “Compositions of selenoorganic compounds and methods of use thereof” (Alltech, Inc., priority 2014, dated 2017):

Columns and labels:
AKT = experiment: Western blot of phosphorylated Akt in primary mouse hepatocytes; type: cell-based; settings: 100 nM insulin 6 hours, or Compounds CDE both doses 24 hours + 6 hours
Experimental: (§1) The overnight-acclimated hepatocytes were washed twice with PBS (to remove any residual FBS and other additives in the TRL hepatocyte maintenance medium, pretreated with control (water) or selenium Compounds CDE (150 or 300 ppb of each selenium compound) in DMEM/F12 media supplemented with 10% fetal bovine serum (FBS) for 24 hr. These cells were then washed twice with PBS and incubated with the same dose of selenium Compounds CDE (150 or 300 ppb) in the presence or absence of insulin (10 or 100 nM, Sigma), 0.1 mM 8-CPT (Sigma) or 0.5 μM Dex (Sigma) in serum-free and glucose-free DMEM media (Invitrogen) supplemented with 20 mM lactose (Sigma) and 2 mM pyruvate (Sigma) and 15 mM HEPES (Sigma) for another 6 hours. […]
(§2) After the above described treatments, primary mouse hepatocytes were rinsed with ice-cold PBS and lysed in the ice-cold RIPA buffer containing complete proteinase and phosphatase inhibitors (Thermo-Fisher Scientific, Waltham, Mass.) on ice for 30 min Cell lysates were collected using a cell scraper and transfer pipette and then centrifuged at 12000×g for 30 min at 4° C. to remove the DNA pellet and obtain the protein extract. Protein levels in the supernatant of these cell lysates were determined using the Pierce Micro-BCA protein assay kit (Thermo Scientific-Piece Biotechnology, Rockford, Ill.) according to the manufacturer's protocol. […]

Foxo1 = experiment: Western blot of pFoxo1T24 in primary mouse hepatocytes; type: cell-based; settings: 100 nM insulin 6 hours, or Compounds CDE both doses 24 hours + 6 hours
Experimental: as §1, §2

With “insulin: insulin (10 or 100 nM, Sigma) used as comparator and cotreatment” the “pAktS473 protein level (in words)” value (AKT) was “significant increase” and the “pFoxo1T24 protein level (in words)” value (Foxo1) was “significant increase”.
